Measured values taken from patent US20240025863A1, “SOS1 PROTEIN DEGRADERS, PHARMACEUTICAL COMPOSITIONS THEREOF, AND THEIR THERAPEUTIC APPLICATIONS” (BioTheryX, Inc., priority 2020, published 2024).
Read-outs that look alike come from different tables or passages of the source.

Tests used:
Format in all cases: cell-based
[1] = tested on: H23 cells; assay: Cell viability assay (CellTiter-Glo), H23 cells; conditions: Homo sapiens, NCI-H23, 72 h, read-out: Inhibition of Cancerous Cells IC50 H23
Method: H358, H23, SW48, and AsPC-1 cells were cultured in RPMI 1640 media supplemented with 10% fetal bovine serum, streptomycin, and penicillin. Lovo and SW480 cells were cultured in DMEM media supplemented with 10% fetal bovine serum, streptomycin, and penicillin. The cell lines were plated in their respective medium supplemented with 2.5% fetal bovine serum, streptomycin, and penicillin. All cell lines were plated in white walled 96-well plates at 2,000 cells/well or 384-well plates at 500 cells/well, except Lovo, which were plated at 4,000 or 1,000 cells/well, respectively. The cells were incubated in DMSO (control) or a compound for 3 days at 37° C. under 5% CO2. A CELLTITER-GLO® reagent (100 μL) was then added to each well. After a 10 min incubation with shaking, luminescence was measured using an ENVISION® multimode plate reader.

[2] = tested on: Lovo cells (G13D); assay: Cell viability assay (CellTiter-Glo), Lovo cells; conditions: Homo sapiens, 72 h, read-out: Inhibition of Cancerous Cells IC50 Lovo (G13D)
Procedure, shortened: (§1)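 Each cell line is treated with compound for 3 days at 37 °C under 5% CO2 in its own medium containing 2.5% FBS. ATP-based CellTiter-Glo luminescence, measured after 10 min shaking, serves as the viability signal relative to DMSO control.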

[3] = tested on: SW48 cells (wt); assay: Cell viability assay (CellTiter-Glo), SW48 cells; conditions: Homo sapiens, read-out: Inhibition of Cancerous Cells IC50 SW48 (wt)
Procedure, shortened: as §1

[4] = tested on: SW480 cells (G12V); assay: Cell viability assay (CellTiter-Glo), SW480 cells; conditions: Homo sapiens, read-out: Inhibition of Cancerous Cells IC50 SW480 (G12V)
Procedure, shortened: as §1

[5] = tested on: H358 cells (G12C); assay: Cell viability assay (CellTiter-Glo), H358 cells; conditions: Homo sapiens, NCI-H358, 72 h, read-out: Inhibition of Cancerous Cells IC50 H358 (G12C)
Procedure, shortened: as §1

[6] = tested on: AsPC-1 cells (G12D); assay: Cell viability assay (CellTiter-Glo), AsPC-1 cells; conditions: Homo sapiens, ASPC1, 72 h, 3 days incubation, CellTiter-Glo luminescence, read-out: Inhibition of Cancerous Cells IC50 AsPC-1 (G12D)
Procedure, shortened: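 Cells were grown in medium with 2.5% FBS at 2,000 cells/well (96-well) or 500 cells/well (384-well); Lovo were plated at 4,000 or 1,000. Compound exposure lasted 3 days at 37° C., 5% CO2. Viability was measured as CellTiter-Glo luminescence.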

[7] = H23 cells, 3 days incubation, CellTiter-Glo luminescence
[8] = H358 cells, 3 days incubation, CellTiter-Glo luminescence
[9] = Lovo cells, 3 days incubation, CellTiter-Glo luminescence
[10] = 72 h, SW48 cells, 3 days incubation, CellTiter-Glo luminescence
[11] = 72 h, SW480 cells, 3 days incubation, CellTiter-Glo luminescence

IC50 [5, 8]	SMILES	IC50 [1, 7]	also measured
1500 nM	COc1cc2c(N[C@H](C)c3cccc(Br)c3)nc(C)nc2cc1OCCCCCCCNCc1ccc(OCc2scc3c2CN(C2CCC(=O)NC2=O)C3=O)cc1 (stereo partly drawn) [Compound A41, 3-(1-((4-(((7-((4-(((R)-1-(3-Bromophenyl)ethyl)amino)-6-methoxy-2-methyl-quinazolin-7-yl)oxy)heptyl)amino)methyl)phenoxy)methyl)-4-oxo-4H-thieno[3,4-c]pyrrol-5(6H)-yl)piperidine-2,6-dione]	1300 nM	–
15000 nM	COc1cc2c(N[C@H](C)c3cccc(Br)c3)nc(C)nc2cc1OCCCCCCCCC(=O)N[C@H](C(=O)N1C[C@H](O)C[C@H]1C(=O)NCc1ccc(-c2scnc2C)cc1)C(C)(C)C [Compound D2, (2S,4R)-1-((S)-2-(9-((4-(((R)-1-(3-bromophenyl)ethyl)amino)-6-methoxy-2-methylquinazolin-7-yl)oxy)nonanamido)-3,3-dimethylbutanoyl)-4-hydroxy-N-(4-(4-methylthiazol-5-yl)benzyl)pyrrolidine-2-carboxamide]	13000 nM	–
6100 nM	COc1cc2c(N[C@@H](C)c3cccs3)nc(C)nc2cc1OCCCCCCCCC(=O)N[C@H](C(=O)N1C[C@H](O)C[C@H]1C(=O)NCc1ccc(-c2scnc2C)cc1)C(C)(C)C [Compound D6, (2S,4R)-4-Hydroxy-1-((S)-2-(9-((6-methoxy-2-methyl-4-(((S)-1-(thiophen-2-yl)ethyl)amino)quinazolin-7-yl)oxy)nonanamido)-3,3-dimethylbutanoyl)-N-(4-(4-methylthiazol-5-yl)benzyl)pyrrolidine-2-carboxamide]	2700 nM	–
970 nM	CNCc1ccccc1-c1csc([C@@H](C)Nc2nc(C)nc3cc(OCCCCCCCCC(=O)N[C@H](C(=O)N4C[C@H](O)C[C@H]4C(=O)NCc4ccc(-c5scnc5C)cc4)C(C)(C)C)c(OC)cc23)c1 [Compound D9, (2S,4R)-4-hydroxy-1-((S)-2-(9-((6-methoxy-2-methyl-4-(((R)-1-(4-(2-((methylamino)methyl)phenyl)thiophen-2-yl)ethyl)amino)quinazolin-7-yl)oxy)nonanamido)-3,3-dimethylbutanoyl)-N-(4-(4-methylthiazol-5-yl)benzyl)pyrrolidine-2-carboxamide]	1000 nM	–
750 nM	CNCc1ccccc1-c1csc([C@H](C)Nc2nc(C)nc3cc(OCCCCCCCCC(=O)N[C@H](C(=O)N4C[C@H](O)C[C@H]4C(=O)NCc4ccc(-c5scnc5C)cc4)C(C)(C)C)c(OC)cc23)c1 [Compound D10, (2S,4R)-4-hydroxy-1-((S)-2-(9-((6-methoxy-2-methyl-4-(((S)-1-(4-(2-((methylamino)methyl)phenyl)thiophen-2-yl)ethyl)amino)quinazolin-7-yl)oxy)nonanamido)-3,3-dimethylbutanoyl)-N-(4-(4-methylthiazol-5-yl)benzyl)pyrrolidine-2-carboxamide]	930 nM	–
1600 nM	COc1cc2c(N[C@H](C)c3cccc(Br)c3)nc(C)nc2cc1OCCCCCCCOc1cc(-c2scnc2C)ccc1CNC(=O)[C@@H]1C[C@@H](O)CN1C(=O)[C@@H](NC(C)=O)C(C)(C)C [Compound D11, (2S,4R)-1-((S)-2-Acetamido-3,3-dimethylbutanoyl)-N-(2-((7-((4-(((R)-1-(3-bromophenyl)ethyl)amino)-6-methoxy-2-methylquinazolin-7-yl)oxy)heptyl)oxy)-4-(4-methylthiazol-5-yl)benzyl)-4-hydroxypyrrolidine-2-carboxamide]	–	IC50 [6]: > 10000 nM; IC50 [2, 9]: 2600 nM; IC50 [3, 10]: 5900 nM; IC50 [4, 11]: 1200 nM
> 10000 nM	COc1cc2c(N[C@H](C)c3cccc(Br)c3)nc(C)nc2cc1OCCCCCCCCCCCCCOc1cc(-c2scnc2C)ccc1CNC(=O)[C@@H]1C[C@@H](O)CN1C(=O)[C@@H](NC(C)=O)C(C)(C)C [Compound D14, (2S,4R)-1-((S)-2-Acetamido-3,3-dimethylbutanoyl)-N-(2-((13-((4-(((R)-1-(3-bromophenyl)ethyl)amino)-6-methoxy-2-methylquinazolin-7-yl)oxy)tridecyl)oxy)-4-(4-methyl-thiazol-5-yl)benzyl)-4-hydroxypyrrolidine-2-carboxamide]	–	IC50 [6]: > 10000 nM; IC50 [2, 9]: 640 nM; IC50 [3, 10]: > 10000 nM; IC50 [4, 11]: 3300 nM

The remaining lines, values behind:

SMILES	IC50 [5, 8]	IC50 [1, 7]	also measured
COc1cc2c(N[C@H](C)c3cccc(Br)c3)nc(C)nc2cc1OCCCCCCCN1CCC(c2cc(F)cc3c2CN(C2CCC(=O)NC2=O)C3=O)CC1 (stereo partly drawn) [Compound A1, 3-(4-(1-(7-((4-(((R)-1-(3-bromophenyl)ethyl)amino)-6-methoxy-2-methylquinazolin-7-yl)oxy)heptyl)piperidin-4-yl)-6-fluoro-1-oxoisoindolin-2-yl)piperidine-2,6-dione]	–	–	IC50 [1]: 1200 nM; IC50 ([2]; LoVo): 940 nM; IC50 ([3]; SW48, 72 h): 700 nM; IC50 ([4]; SW480, 72 h): 580 nM; IC50 [5]: 2800 nM
COc1cc2c(N[C@H](C)c3cccc(Br)c3)nc(C)nc2cc1OCCOCCOCCOCCNc1cccc2c1C(=O)N(C1CCC(=O)NC1=O)C2=O (stereo partly drawn) [Compound A4, 4-((2-(2-(2-(2-((4-(((R)-1-(3-bromophenyl)ethyl)amino)-6-methoxy-2-methylquinazolin-7-yl)oxy)ethoxy)ethoxy)ethoxy)ethyl)amino)-2-(2,6-dioxopiperidin-3-yl)isoindoline-1,3-dione]	7200 nM	9000 nM	–
COc1cc2c(N[C@H](C)c3cccc(Br)c3)nc(C)nc2cc1OCCCCCCCCCN1CCC(c2cc(F)cc3c2CN(C2CCC(=O)NC2=O)C3=O)CC1 (stereo partly drawn) [Compound A12, 3-(4-(1-(9-((4-(((R)-1-(3-Bromophenyl)ethyl)amino)-6-methoxy-2-methyl-quinazolin-7-yl)oxy)nonyl)piperidin-4-yl)-6-fluoro-1-oxoisoindolin-2-yl)piperidine-2,6-dione]	1400 nM	1200 nM	–
COc1cc2c(N[C@H](C)c3cccc(Br)c3)nc(C)nc2cc1OC1CCN(CCCCN2CCC(c3cc(F)cc4c3CN(C3CCC(=O)NC3=O)C4=O)CC2)CC1 (stereo partly drawn) [Compound A18, 3-(4-(1-(4-(4-((4-(((R)-1-(3-Bromophenyl)ethyl)amino)-6-methoxy-2-methyl-quinazolin-7-yl)oxy)piperidin-1-yl)butyl)piperidin-4-yl)-6-fluoro-1-oxoisoindolin-2-yl)-piperidine-2,6-dione]	3000 nM	2600 nM	–
COc1cc2nc(C)nc(N[C@H](C)c3cccc(Br)c3)c2cc1OCCCCCCCN1CCC(c2cc(F)cc3c2CN(C2CCC(=O)NC2=O)C3=O)CC1 (stereo partly drawn) [Compound A19, 3-(4-(1-(7-((4-(((R)-1-(3-Bromophenyl)ethyl)amino)-7-methoxy-2-methyl-quinazolin-6-yl)oxy)heptyl)piperidin-4-yl)-6-fluoro-1-oxoisoindolin-2-yl)piperidine-2,6-dione]	1700 nM	1900 nM	–
COc1cc2c(N[C@H](C)c3cccc(Br)c3)nc(C)nc2cc1OCCCCCCCN1CCC(c2cc3c(cc2F)C(=O)N(C2CCC(=O)NC2=O)C3)CC1 (stereo partly drawn) [Compound A22, 3-(5-(1-(7-((4-(((R)-1-(3-bromophenyl)ethyl)amino)-6-methoxy-2-methylquinazolin-7-yl)oxy)heptyl)piperidin-4-yl)-6-fluoro-1-oxoisoindolin-2-yl)piperidine-2,6-dione]	790 nM	900 nM	–
COc1cc2c(N[C@H](C)c3cccc(Br)c3)nc(C)nc2cc1OCCOCCOCCNc1cccc2c1C(=O)N(C1CCC(=O)NC1=O)C2=O (stereo partly drawn) [Compound A36, 4-((2-(2-(2-((4-(((R)-1-(3-Bromophenyl)ethyl)amino)-6-methoxy-2-methyl-quinazolin-7-yl)oxy)ethoxy)ethoxy)ethyl)amino)-2-(2,6-dioxopiperidin-3-yl)isoindoline-1,3-dione]	8800 nM	8300 nM	–
CNCc1ccccc1-c1csc([C@@H](C)Nc2nc(C)nc3cc(OC)c(OC)cc23)c1 [reference compound]	2100 nM	1500 nM	–
CNCc1ccccc1-c1csc([C@H](C)Nc2nc(C)nc3cc(OC)c(OC)cc23)c1 [reference compound]	2400 nM	2300 nM	–
